Key:
Du145 cells [1] = experiment: Western blot of phosphorylated cRaf, MEK1/2, ERK and Akt in Du145 cells; type: cell-based, human
Procedure: (§1) FIG. 2: Adrenomedullin stimulates Du145 cell proliferation and invasion in vitro. A, AM induced cAMP formation in cultured Du145 cells. Cells (3×10^4 cells/ml) were treated with AM (10^−9 M-10^−7 M) for different times. Each value is the mean±SEM of three independent experiments performed in quadruplate (*, p<0.05; **, p<0.01; ***, p<0.001). B, oppose effects of AM and αAM on the growth of Du145 cells in vitro. For proliferation assays, Du145 cells were seeded at the density of 1×10^4 per well in 6 multiwell plates in presence of RPMI 1640 medium supplemented with 5% FBS. AM at 10^−7 M and αAM (70 μg/ml) were added. As control, rabbit control IgG (70 μg/ml) of irrelevant specificity was used. For each treatment, three wells were prepared, exposed to trypsin and cells were counted in Coulter Counter. Each bar represents the mean±SEM of four independent experiments (**, p<0.01; ***, p<0.001). C, AM stimulates Du145 cells invasion in vitro. Du145 cells (1.5×10^4 cells) were added into Biocoat Matrigel invasion upper chamber and 10^−7 M of AM were added into the lower chamber, and after 6 h, noninvaded cells in the upper membrane were removed and cells invading into the lower membrane were quantified by fluorescence by adding DAPI reagent at least 45 min before taking the reading. RPMI 1640 containing 2% FBS was used as control. bFGF was used as positive control. Data are expressed as the number of migrated cells in 10 high-power fields and are the means of results from three independent experiments. Each bar represents the mean±SEM (**, p<0.01; ***, p<0.001). D, intracellular signalling pathway induced by AM in Du145 cells. Western blot analysis of phosphorylated cRAF (pcRAF), pMEK1/2, pERK (44 and 42 kDa) and ERK in Du145 cells, stimulated with AM (5×10^−7 M) for 2, 5, 10, 20, and 30 min. AM (5×10^−7 M)-induced phosphorylation of ERK was inhibited by mitogen-activated protein kinase kinase inhibitor, U0126 (10 μM, 30 min). EGF was used as positive control known to stimulate phosphorylation of cRAF, MEK, and ERK. To assess the amount of proteins loaded for each sample, immunoblot analysis was performed with anti-α-actin.
Western blotting analysis: Cell extracts were prepared and processed for CLR, RAMP2 and RAMP3 western blot analysis as described (29). Immunoblotting of phospho-c-Raf, phospho-MEK1/2, phospho-ERK1/2, and ERK1/2 was performed using MAPK-phospho-ERK1/2 pathway samples kit (Cell Signaling Technologie, Inc.).

LNCaP cells [2] = experiment: Cell proliferation assay, LNCaP cells; type: cell-based, human; conditions: AM 2×10^-7 M; 5% FBS
Procedure: (§2) FIG. 10: Effect of AM and αAM on LNCaP cells in vitro. A, total RNA (1 μg) DNA-free from LNCaP cell line was reverse transcribed into cDNA and subjected to real-time quantitative reverse transcription (RT)-PCR for the estimation of relative CLR, RAMP2 and RAMP3 mRNAs to 18S rRNA ratio. B, effects of AM and αAM on LNCaP cells growth in vitro. For proliferation assay, LNCaP cells were seeded and treated in the presence of 5% FBS as described for PC3 cells in FIG. 9. C, no effects of AM on LNCaP cells invasion in vitro. For invasion assays, LNCaP cells (5×10^4 cells) were seeded on a Matrigel layer in a boyden chamber assay and analyzed as described for PC3 cells in FIG. 9.
Cell proliferation assay: The effects of AM, αAM and control IgG on cell proliferation was examined at the indicated time points as described (19).

LNCaP cells [3] = experiment: Matrigel invasion assay (modified Boyden chamber), LNCaP cells; type: cell-based, human
Procedure: as §2
Cell migration and invasion assays: The migration and chemoinvasion were assessed using a modified Boyden chamber assay (7). Du145 (15×10^−3), LNCaP (50×10^−3), and PC3 (30×10^−3) cells were added to the upper compartment during 6 h. For LECs, (30×10^−3) cells were added during 48 h for invasion and 20 h for migration.

[4] = tested on: lymphatic endothelial cells; experiment: LEC death after serum deprivation; type: cell-based, human; conditions: AM 10^-7 M
Procedure: FIG. 12. AM is a growth factor survival for lymphatic endothelial cells. Time course of LEC death after DMEM serum deprivation in the absence and presence of AM (10^−7M). Exponentially growing cells were changed into serum-free medium, and all floating cells after 12, 24 and 48 h were counted with a coulter counter. Each point and bar represents mean±SEM (n=6); values were normalized to the total number of floating dead cells 48 h after serum deprivation in the absence of AM, which was set at 100%. **, p<0.01.

PC-3 cells [5] = experiment: Cell proliferation assay, PC3 cells; type: cell-based, human; conditions: AM 10^-7 M or αAM 70 μg/ml; 2% FBS
Procedure: (§3) FIG. 9: Effect of AM on PC3 cells in vitro. A, expression of AMR mRNAs in PC3 cells. Total RNA (1 μg) DNA-free from PC3 cell line was reverse transcribed into cDNA and subjected to real-time quantitative reverse transcription (RT)-PCR for the estimation of relative CLR, RAMP2 and RAMP3 mRNAs to 18S rRNA ratio. B, effects of AM and αAM on the growth of PC3 cells in vitro. For proliferation assays, PC3 cells were seeded at the density of 2×10^4 per well in 24 multiwell plates in the presence of RPMI 1640 medium supplemented with 2% FBS. AM at 10^−7M or αAM (70 μg/ml) were added. As control, rabbit control IgG (70 μg/ml) of irrelevant specificity was used. For each treatment, six wells were prepared, exposed to trypsin and cells were counted in Coulter Counter. Each bar represents the mean±SEM of four independent experiments. […] PC3 cells (3×10^4 cells) were added into Biocoat Matrigel invasion upper chamber and 10^−7 M of AM were added into the lower chamber, and after 6 h, non-invaded cells in the upper membrane were removed and cells invading into the lower membrane were quantified by fluorescence by adding DAPI reagent 45 min before taking the reading. Data are expressed as the number of migrated cells in 10 high-power fields and are the means of results from three independent experiments each performed in triplicate. bFGF was used as positive control. […]

Du145 cells [6] = experiment: Matrigel invasion assay (modified Boyden chamber), Du145 cells; type: cell-based, human
Procedure: as §1, with “C, AM stimulates Du145 cells invasion in vitro.” left out, “RPMI 1640 containing 2% FBS was used as control. bFGF was used as positive control.” left out, “Each bar represents the mean±SEM (**, p<0.01; ***, p<0.001). D, intracellular signalling pathway induced by AM in Du145 cells. Western blot analysis of phosphorylated cRAF (pcRAF), pMEK1/2, pERK (44 and 42 kDa) and ERK in Du145 cells, stimulated with AM (5×10^−7 M) for 2, 5, 10, 20, and 30 min. AM (5×10^−7 M)-induced phosphorylation of ERK was inhibited by mitogen-activated protein kinase kinase inhibitor, U0126 (10 μM, 30 min). EGF was used as positive control known to stimulate phosphorylation of cRAF, MEK, and ERK. To assess the amount of proteins loaded for each sample, immunoblot analysis was performed with anti-α-actin.” left out

human LEC = experiment: Proliferation, migration and invasion of human LECs in vitro; type: cell-based; conditions: AM 10^-7 M; proliferation 6 days, migration 20 h, invasion 48 h
Procedure: Neonatal Human Dermal Lymphatic Microvascular Endothelial Cells (HMVEC-dLyNeo) were purchased from Lonza (Lonza, Basel, Switzerland), and expanded in microvascular endothelial cell growth medium-2 (EGM-2MV, Lonza) with growth supplements (EGM-2MV, Lonza). A, total RNA (1 μg) DNA-free from LECs was reverse transcribed into cDNA and subjected to real-time quantitative reverse transcription (RT)-PCR for the estimation of relative AM, CLR, RAMP2 and RAMP3 mRNAs to 18S rRNA ratio. B, oppose effect of AM and αAM on the growth of LECs in vitro. For proliferation assay, LECs were seeded at the density of 3.5×10^4 per well in 6 multiwell plates in the presence of EBM-2 medium supplemented with 0.5% FBS. AM (10^−7 M) and αAM (70 μg/ml) were added for 6 days treatment. After treatment, cells were exposed to trypsin and were prepared for cell number counting in a coulter counter. […] Cells migrating through the filter were counted after 20 h (C) and those migrating in presence of Matrigel were counted after 48 h (D). Data are expressed as the number of migrated cells in 10-high-power fields, and the values represent the mean±SEM of three independent experiments each performed in triplicate (*p<0.05; **p<0.01; ***p<0.001).
Cell migration and invasion assays: The migration and chemoinvasion were assessed using a modified Boyden chamber assay (7). […]

Du145 cells [7] = experiment: Cell proliferation assay, Du145 cells; type: cell-based, human; conditions: AM 10^-7 M
Procedure: as §1, with “C, AM stimulates Du145 cells invasion in vitro.” left out, “RPMI 1640 containing 2% FBS was used as control. bFGF was used as positive control.” left out, “Each bar represents the mean±SEM (**, p<0.01; ***, p<0.001). D, intracellular signalling pathway induced by AM in Du145 cells. Western blot analysis of phosphorylated cRAF (pcRAF), pMEK1/2, pERK (44 and 42 kDa) and ERK in Du145 cells, stimulated with AM (5×10^−7 M) for 2, 5, 10, 20, and 30 min. AM (5×10^−7 M)-induced phosphorylation of ERK was inhibited by mitogen-activated protein kinase kinase inhibitor, U0126 (10 μM, 30 min). EGF was used as positive control known to stimulate phosphorylation of cRAF, MEK, and ERK. To assess the amount of proteins loaded for each sample, immunoblot analysis was performed with anti-α-actin.” left out

PC-3 cells [8] = experiment: Matrigel invasion assay (modified Boyden chamber), PC3 cells; type: cell-based, human; conditions: AM 10^-7 M, 6 h
Procedure: as §3

Du145 cells [9] = experiment: Cyclic AMP assay in Du145 cells; type: cell-based, human
Procedure: as §1, with “To assess the amount of proteins loaded for each sample, immunoblot analysis was performed with anti-α-actin.” left out

In the case of `N#CC(=C(/N)Sc1ccccc1N)/C(C#N)=C(\N)Sc1ccccc1N` [U0126], the “inhibition of p-ERK induced by AM” value (Du145 cells [1]; U0126 10 μM, 30 min, AM 5×10^-7 M) is reported as “completely inhibited”.
With adrenomedullin [AM] the “growth rates of LNCaP cells versus control cells” value (LNCaP cells [2]) was “slight decrease in the growth rates”, the “levels of p-MEK and p-ERK” value (Du145 cells [1]; AM 5×10^-7 M, as early as 2 and 5 min, sustained up to 30 min) was “significantly increased” and the cRaf phosphorylation (Du145 cells [1]; AM 5×10^-7 M, as early as 2 min, control levels up to 10 min) was “increased cRaf phosphorylation”. The “level of p-Akt” value (Du145 cells [1]; AM stimulation) was “not markedly increased”, the “effect on LNCaP cells invasion” value (LNCaP cells [3]) was “No effect” and the “apoptosis (floating cells) after serum deprivation” value ([4]; persisted during 48 h, LECs) was “prevented the apoptosis”. The “apoptotic cell death of adherent culture” value ([4]; serum deprived LECs) was “markedly suppressed”, the “proliferative response of PC-3 cells” value (PC-3 cells [5]) was “no proliferative responses” and the “increase of invasion compared with control” value (Du145 cells [6]; AM 10^-7 M in bottom wells, 6 h) was 92±22%. The “effect of AM on LECs” value (human LEC) was “induces proliferation, migration and invasion of LECs”, the “stimulation of proliferation compared with untreated cells” value (Du145 cells [7]; 6 days) was 51±9.9% and the “stimulation of proliferation compared with untreated cells” value (Du145 cells [7]; 8 days) was 96±14.6%. For the same molecule, the induction of invasion (PC-3 cells [8]) was 144±7.6%, the “time at which cAMP increase reached a maximum” value (Du145 cells [9]; AM 10^-7 M) was 5 min and the “increase in cAMP content” value (Du145 cells [9]; AM 10^-7 M, IBMX 10^-4 M) was 2.8±0.14 fold. For the same molecule, the “stimulation of cAMP formation with graded concentration” value (Du145 cells [9]; AM 10^-9-10^-7 M, 5 min) was “dose-dependent stimulation”.
In the case of “bFGF: Growth factor used as positive control in invasion and migration assays”, the “effect on invasion relative to AM” value (Du145 cells [6]; bFGF 10^-6 M, positive control) is reported as “similar”.

From patent US20140308298A1, “Diagnostic and Treatment of an Androgen-Independent Prostate Cancer” (UNIVERSITE D'AIX MARSEILLE, priority 2011, published 2014)
